Experimental data reported in US20060189608A1, “Methods for treating ocular angiogenesis, retinal edema, retinal ischemia, and diabetic retinopathy using selective RTK inhibitors” (Alcon, Inc., priority 2005, published 2006).

How the values were obtained:
[1] = tested on: laser-induced choroidal neovascularization (CNV); assay: Laser-induced CNV, oral gavage, prevention paradigm, mouse; type: in vivo; details: for inhibition of CNV: prevention paradigm; for Mean CNV / Median CNV: prevention
Experimental: Methods. CNV was generated by laser-induced rupture of Bruch's membrane. Briefly, 4 to 5 week old male C57BL/6J mice were anesthetized using intraperitoneal administration of ketamine hydrochloride (100 mg/kg) and xylazine (5 mg/kg) and the pupils of both eyes dilated with topical ocular instillation of 1% tropicamide and 2.5% Mydfin®. One drop of topical cellulose (Gonioscopic®) was used to lubricate the cornea. A hand-held cover slip was applied to the cornea and used as a contact lens to aid visualization of the fundus. Three to four retinal burns were placed in randomly assigned eye (right or left eye for each mouse) using the Alcon 532 nm EyeLite laser with a slit 5 lamp delivery system. The laser burns were used to generate a rupture in Bruch's membrane, which was indicated ophthalmoscopically by the formation of a bubble under the retina. Only mice with laser burns that produced three bubbles per eye were included in the study. Bums were typically placed at the 3, 6, 9 or 12 o'clock positions in the posterior pole of the retina, avoiding the branch retinal arteries and veins.
Each mouse was randomly assigned into one of the following treatment groups: noninjected controls, sham-injected controls, vehicle-injected mice, or one of three RTKi-injected groups. Control mice received laser photocoagulation in both eyes, where one eye received a sham injection, i.e. a pars plana needle puncture. […] The intravitreal injection was performed immediately after laser photocoagulation. At 14 days post-laser, all mice were anesthetized and systemically perfused with fluorescein-labeled dextran. Eyes were then harvested and prepared as choroidal flat mounts with the RPE side oriented towards the observer. All choroidal flat mounts were examined using a fluorescent microscope. Digital images of the CNV were captured, where the CNV was identified as areas of hyperfluorescence within the pigmented background. Computerized image analysis was used to delineate and measure the two dimensional area of the hyperfluorescent CNV per lesion (um^2) for the outcome measurement. The median CNV area/burn per mouse per treatment group or the mean CNV area/burn per treatment group was used for statistical analysis depending on the normality of data distribution; P≦0.05 was considered significant.
METHODS: CNV was generated by laser-induced rupture of Bruch's membrane as described in Example 3 above. […] The mice received an oral gavage of 0, 1.5, 5, or 10 mg/kg twice per day and for 14 days post-laser. […] Oral gavage dosing was continued twice per day for 14 days post-laser. Several mice were Is euthanized at day 7 post-laser and used for controls. At 14 days post-laser, all mice were anesthetized and systemically perfused with fluorescein-labeled dextran. Eyes were then harvested and prepared as choroidal flat mounts as described in Example 3 above.

[2] = tested on: rat OIR model; assay: Preretinal neovascularization, rat OIR model, oral gavage; type: in vivo, Sprague-Dawley rats; details: for % Inhibition (vs vehicle-injected eye): preretinal NV
Experimental: (§1) Immediately following euthanasia, retinas from all rat pups were harvested, fixed in 10% neutral buffered formalin for 24 hours, subjected to ADPase staining, and fixed onto slides as whole mounts. Digital images were acquired from each retinal flat mount that was adequately prepared. Computerized image analysis was used to obtain a NV clockhour score from each readable sample. Each clockhour out of 12 total per retina was assessed for the presence or absence of preretinal NV. Statistical comparisons using median scores for NV clockhours from each treatment group were utilized in nonparametric analyses. Each noninjected pup represented one NV score by taking the average value of both eyes and was used in comparisons against each dosage group. Because the pups were randomly assigned and no difference was observed between oxygen-exposed control pups from all litters, the NV scores were combined for all treatment groups. P≦0.05 was considered statistically significant.
METHODS: Pregnant Sprague-Dawley rats were received at 14 days gestation and subsequently gave birth on Day 22±1 of gestation. Immediately following parturition, pups were pooled and randomized into separate litters (n=17 pups/litter), placed into separate shoebox cages inside oxygen delivery chamber, and subjected to an oxygen-exposure profile from Day 0 to Day 14 postpartum. Litters were then placed into room air from Day 14/0 through Day 14/6 (days 14-20 postpartum). Additionally on Day 14/0, each pup was randomly assigned as oxygen-exposed controls, vehicle treated, or drug-treated at 1.5, 5, 10 mg/kg, p.o., BID. At Day 14/6 (20 days postpartum), all animals in both studies were euthanized and retina whole mounts were prepared as described in Example 1 above.

[3] = tested on: rat model of oxygen-induced retinopathy; assay: Preretinal neovascularization, rat OIR model, intravitreal injection; type: in vivo, Sprague-Dawley rats; details: for % Inhibition (vs. vehicle-injected eye) / Median NV / NV Range: 5 μl intravitreal; for % Inhibition (vs. vehicle-injected eye): preretinal NV; for Median NV / NV Range: NV clockhour score
From the text: METHODS: Pregnant Sprague-Dawley rats were received at 14 days gestation and subsequently gave birth on Day 22±1 of gestation. Immediately following parturition, pups were pooled and randomized into separate litters (n=17 pups/litter), placed into separate shoebox cages inside oxygen delivery chamber, and subjected to an oxygen-exposure profile from Day 0-14 postpartum. Litters were then placed into room air from Day 14/0 through Day 14/6 (days 14-20 postpartum). Additionally on Day 14/0, each pup was randomly assigned as an oxygen-exposed control or into various treatment groups. […] At Day 14/6 (20 days postpartum), all animals in both studies were euthanized.
as §1

With Cc1ccc(F)c(NC(=O)Nc2ccc(-c3cccc4[nH]nc(N)c34)cc2)c1 [AL-39324, N-[4-[3-amino-1H-indazol-4-yl)phenyl]-N′-(2-fluoro-5-methylphenyl)urea] the “inhibition of CNV” value ([1]; 3 mg/kg/day oral gavage) was “no significant inhibition”, the “Mean CNV” value ([1]; 3 mg/kg/day oral) was 21670 μm^2 and the “Median CNV” value ([1]; 3 mg/kg/day oral) was 22317 μm^2. For the same compound, the “inhibition of CNV” value ([1]; 10 mg/kg/day oral gavage) was 84.3%, the “Mean CNV” value ([1]; 10 mg/kg/day oral) was 4046 μm^2 and the “Median CNV” value ([1]; 10 mg/kg/day oral) was 4137 μm^2. For the same compound, the “inhibition of CNV” value ([1]; 20 mg/kg/d oral gavage) was “complete inhibition of CNV”, the “Mean CNV” value ([1]; 20 mg/kg/day oral) was 3266 μm^2 and the “Median CNV” value ([1]; 20 mg/kg/day oral) was 0 μm^2. For the same compound, the “Median NV” value ([2]; 3 mg/kg in PEG 400, p.o.) was 7.5, the “NV Range” value ([2]; 3 mg/kg in PEG 400, p.o.) was 3.8-9.8 and the “% Inhibition (vs vehicle-injected eye)” value ([2]; 3 mg/kg in PEG 400, p.o. (per day, BID)) was −1.4%. The “decrease in NV” value ([2]; 3 mg/kg/day p.o.) was “did not have a significant decrease in NV”, the “Median NV” value ([2]; 10 mg/kg in PEG 400, p.o.) was 1.105 and the “NV Range” value ([2]; 10 mg/kg in PEG 400, p.o.) was 0-8. The “% Inhibition (vs vehicle-injected eye)” value ([2]; 10 mg/kg in PEG 400, p.o. (per day, BID)) was 86.4%, the “Median NV” value ([2]; 20 mg/kg in PEG 400, p.o.) was 0 and the “NV Range” value ([2]; 20 mg/kg in PEG 400, p.o.) was 0. The “% Inhibition (vs vehicle-injected eye)” value ([2]; 20 mg/kg in PEG 400, p.o. (per day, BID)) was 100%, the “inhibition of preretinal NV” value ([2]; 20 mg/kg/day p.o.) was “complete inhibition of preretinal NV” and the “efficacy against preretinal NV” value ([3]; 0.1% treated eyes) was “Efficacy was not observed”. For the same compound, the “% Inhibition (vs. vehicle-injected eye)” value ([3]; 0.1%) was 37%, the “Median NV” value ([3]; 0.1%) was 2.835 and the “NV Range” value ([3]; 0.1%) was 1.1-5.3. For the same compound, the “% Inhibition (vs. vehicle-injected eye)” value ([3]; 0.3%) was 100%, the “Median NV” value ([3]; 0.3%) was 0 and the “NV Range” value ([3]; 0.3%) was 0-5. For the same compound, the “% Inhibition (vs. vehicle-injected eye)” value ([3]; 0.6%) was 100%, the “Median NV” value ([3]; 0.6%) was 0 and the “NV Range” value ([3]; 0.6%) was 0-1.1. For the same compound, the “% Inhibition (vs. vehicle-injected eye)” value ([3]; 1%) was 100%, the “Median NV” value ([3]; 1%) was 0 and the “NV Range” value ([3]; 1%) was 0-2. For the same compound, the “inhibition of preretinal NV” value ([3]; between 0.3%-1% suspensions, intravitreal) was 100%.
